Test results as given in PubChem BioAssay AID1963825 (Molecular Pharmacology Branch, DTP, NCI, 2024).

Test: Anticancer human tumor 997537-175-T-J1-PDC patient-derived colon adenocarcinoma cell line growth inhibition [POLQ]
Conditions: 997537-175-T-J1-PDC complex spheroid viability, combination with POLQ inhibitors; curve of first compound; second compound 0.0316 µM
Outline: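 Growth inhibition in 3D: complex spheroids (tumor PDC, HUVEC, MSC) treated with POLQ inhibitor combinations; where Cmax unknown, highest tested concentration 10 microM, except SN-38 at 1 microM.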
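Note: luminescence signal used as a surrogate for viable cells; spheroids exposed to drugs for seven days before readout.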

First: COc1cccc2c1C(=O)c1c(O)c3c(c(O)c1C2=O)CC(O)(C(=O)CO)CC3OC1CC(N)C(O)C(C)O1 (stereo unspecified) + Nc1ccc(C#CCN(C(=O)Cc2ncc(C(F)(F)F)cc2C(F)(F)F)c2ccc(F)cc2)nn1
Second: COc1cc(C2c3cc4c(cc3C(OC3OC5COC(C)OC5C(O)C3O)C3COC(=O)C23)OCO4)cc(OC)c1O (stereo unspecified) + Cc1cccc(N(C)C(=O)C2C(O)CCN2c2nc(C)cc(C(F)(F)F)c2C#N)c1
The IC50 of the first is lower: 3.2 µM for the first, > 10 µM for the second. The first is the more potent here.

For `CC1COCCN1c1cc(C2(S(C)(=N)=O)CC2)nc(-c2ccnc3[nH]ccc23)n1` (stereo unspecified) + COC1C(OC(N)=O)C(O)C(Oc2ccc3c(O)c(NC(=O)c4ccc(O)c(CC=C(C)C)c4)c(=O)oc3c2C)OC1(C)C, the IC50 was > 10 µM.

Same assay, conditions: 997537-175-T-J1-PDC complex spheroid viability, combination with POLQ inhibitors; curve of first compound; second compound 0.1 µM

First: COc1cccc2c1C(=O)c1c(O)c3c(c(O)c1C2=O)CC(O)(C(=O)CO)CC3OC1CC(N)C(O)C(C)O1 (stereo unspecified) + Nc1ccc(C#CCN(C(=O)Cc2ncc(C(F)(F)F)cc2C(F)(F)F)c2ccc(F)cc2)nn1
Second: COc1cc(C2c3cc4c(cc3C(OC3OC5COC(C)OC5C(O)C3O)C3COC(=O)C23)OCO4)cc(OC)c1O (stereo unspecified) + Cc1cccc(N(C)C(=O)C2C(O)CCN2c2nc(C)cc(C(F)(F)F)c2C#N)c1
The IC50 of the first is lower: 1.92 µM for the first, > 10 µM for the second.

With `CC1COCCN1c1cc(C2(S(C)(=N)=O)CC2)nc(-c2ccnc3[nH]ccc23)n1` (stereo unspecified) + COC1C(OC(N)=O)C(O)C(Oc2ccc3c(O)c(NC(=O)c4ccc(O)c(CC=C(C)C)c4)c(=O)oc3c2C)OC1(C)C the IC50 was > 10 µM.

Same assay, conditions: 997537-175-T-J1-PDC complex spheroid viability, combination with POLQ inhibitors; curve of first compound; second compound 0.316 µM

Compared with `COc1cccc2c1C(=O)c1c(O)c3c(c(O)c1C2=O)CC(O)(C(=O)CO)CC3OC1CC(N)C(O)C(C)O1` (stereo unspecified) + Nc1ccc(C#CCN(C(=O)Cc2ncc(C(F)(F)F)cc2C(F)(F)F)c2ccc(F)cc2)nn1, `COc1cc(C2c3cc4c(cc3C(OC3OC5COC(C)OC5C(O)C3O)C3COC(=O)C23)OCO4)cc(OC)c1O` (stereo unspecified) + Cc1cccc(N(C)C(=O)C2C(O)CCN2c2nc(C)cc(C(F)(F)F)c2C#N)c1 is higher in IC50: 3.54 µM for the first, > 10 µM for the second.

With `CC1COCCN1c1cc(C2(S(C)(=N)=O)CC2)nc(-c2ccnc3[nH]ccc23)n1` (stereo unspecified) + COC1C(OC(N)=O)C(O)C(Oc2ccc3c(O)c(NC(=O)c4ccc(O)c(CC=C(C)C)c4)c(=O)oc3c2C)OC1(C)C the IC50 was > 10 µM.

Same assay, conditions: 997537-175-T-J1-PDC complex spheroid viability, combination with POLQ inhibitors; curve of first compound; second compound 1 µM

Compared with `COc1cccc2c1C(=O)c1c(O)c3c(c(O)c1C2=O)CC(O)(C(=O)CO)CC3OC1CC(N)C(O)C(C)O1` (stereo unspecified) + Nc1ccc(C#CCN(C(=O)Cc2ncc(C(F)(F)F)cc2C(F)(F)F)c2ccc(F)cc2)nn1, `COc1cc(C2c3cc4c(cc3C(OC3OC5COC(C)OC5C(O)C3O)C3COC(=O)C23)OCO4)cc(OC)c1O` (stereo unspecified) + Cc1cccc(N(C)C(=O)C2C(O)CCN2c2nc(C)cc(C(F)(F)F)c2C#N)c1 is higher in IC50: 2.12 µM for the first, > 10 µM for the second.

In the case of `CC1COCCN1c1cc(C2(S(C)(=N)=O)CC2)nc(-c2ccnc3[nH]ccc23)n1` (stereo unspecified) + COC1C(OC(N)=O)C(O)C(Oc2ccc3c(O)c(NC(=O)c4ccc(O)c(CC=C(C)C)c4)c(=O)oc3c2C)OC1(C)C, the IC50 is reported as > 10 µM.

Same assay, conditions: 997537-175-T-J1-PDC complex spheroid viability, combination with POLQ inhibitors; curve of first compound; second compound 3.16 µM

Going from `COc1cccc2c1C(=O)c1c(O)c3c(c(O)c1C2=O)CC(O)(C(=O)CO)CC3OC1CC(N)C(O)C(C)O1` (stereo unspecified) + Nc1ccc(C#CCN(C(=O)Cc2ncc(C(F)(F)F)cc2C(F)(F)F)c2ccc(F)cc2)nn1 to `COc1cc(C2c3cc4c(cc3C(OC3OC5COC(C)OC5C(O)C3O)C3COC(=O)C23)OCO4)cc(OC)c1O` (stereo unspecified) + Cc1cccc(N(C)C(=O)C2C(O)CCN2c2nc(C)cc(C(F)(F)F)c2C#N)c1, the IC50 rises from 2.85 µM to > 10 µM.

For `CC1COCCN1c1cc(C2(S(C)(=N)=O)CC2)nc(-c2ccnc3[nH]ccc23)n1` (stereo unspecified) + COC1C(OC(N)=O)C(O)C(Oc2ccc3c(O)c(NC(=O)c4ccc(O)c(CC=C(C)C)c4)c(=O)oc3c2C)OC1(C)C, the IC50 was > 10 µM.

Same assay, conditions: 997537-175-T-J1-PDC complex spheroid viability, combination with POLQ inhibitors; curve of first compound; second compound 10 µM

Compared with `COc1cccc2c1C(=O)c1c(O)c3c(c(O)c1C2=O)CC(O)(C(=O)CO)CC3OC1CC(N)C(O)C(C)O1` (stereo unspecified) + Nc1ccc(C#CCN(C(=O)Cc2ncc(C(F)(F)F)cc2C(F)(F)F)c2ccc(F)cc2)nn1, `COc1cc(C2c3cc4c(cc3C(OC3OC5COC(C)OC5C(O)C3O)C3COC(=O)C23)OCO4)cc(OC)c1O` (stereo unspecified) + Cc1cccc(N(C)C(=O)C2C(O)CCN2c2nc(C)cc(C(F)(F)F)c2C#N)c1 is higher in IC50: 2.14 µM for the first, > 10 µM for the second. The first is the more potent here.

For `CC1COCCN1c1cc(C2(S(C)(=N)=O)CC2)nc(-c2ccnc3[nH]ccc23)n1` (stereo unspecified) + COC1C(OC(N)=O)C(O)C(Oc2ccc3c(O)c(NC(=O)c4ccc(O)c(CC=C(C)C)c4)c(=O)oc3c2C)OC1(C)C, the IC50 was > 10 µM.

Same assay, conditions: 997537-175-T-J1-PDC complex spheroid viability, combination with POLQ inhibitors; second compound 0.0316 µM; first compound 0.0316 µM; stronger effect = lower value

Going from `COc1cccc2c1C(=O)c1c(O)c3c(c(O)c1C2=O)CC(O)(C(=O)CO)CC3OC1CC(N)C(O)C(C)O1` (stereo unspecified) + Nc1ccc(C#CCN(C(=O)Cc2ncc(C(F)(F)F)cc2C(F)(F)F)c2ccc(F)cc2)nn1 to `COc1cc(C2c3cc4c(cc3C(OC3OC5COC(C)OC5C(O)C3O)C3COC(=O)C23)OCO4)cc(OC)c1O` (stereo unspecified) + Cc1cccc(N(C)C(=O)C2C(O)CCN2c2nc(C)cc(C(F)(F)F)c2C#N)c1, the viability, T/C falls from 102% to 100%.

Work on `CC1COCCN1c1cc(C2(S(C)(=N)=O)CC2)nc(-c2ccnc3[nH]ccc23)n1` (stereo unspecified) + COC1C(OC(N)=O)C(O)C(Oc2ccc3c(O)c(NC(=O)c4ccc(O)c(CC=C(C)C)c4)c(=O)oc3c2C)OC1(C)C yielded a viability, T/C of 113%.

Same assay, conditions: 997537-175-T-J1-PDC complex spheroid viability, combination with POLQ inhibitors; second compound 0.0316 µM; first compound 0.1 µM; stronger effect = lower value

Compared with `COc1cccc2c1C(=O)c1c(O)c3c(c(O)c1C2=O)CC(O)(C(=O)CO)CC3OC1CC(N)C(O)C(C)O1` (stereo unspecified) + Nc1ccc(C#CCN(C(=O)Cc2ncc(C(F)(F)F)cc2C(F)(F)F)c2ccc(F)cc2)nn1, `COc1cc(C2c3cc4c(cc3C(OC3OC5COC(C)OC5C(O)C3O)C3COC(=O)C23)OCO4)cc(OC)c1O` (stereo unspecified) + Cc1cccc(N(C)C(=O)C2C(O)CCN2c2nc(C)cc(C(F)(F)F)c2C#N)c1 is higher in viability, T/C: 97.5% for the first, 99.4% for the second.

For `CC1COCCN1c1cc(C2(S(C)(=N)=O)CC2)nc(-c2ccnc3[nH]ccc23)n1` (stereo unspecified) + COC1C(OC(N)=O)C(O)C(Oc2ccc3c(O)c(NC(=O)c4ccc(O)c(CC=C(C)C)c4)c(=O)oc3c2C)OC1(C)C, the viability, T/C was 114%.

Same assay, conditions: 997537-175-T-J1-PDC complex spheroid viability, combination with POLQ inhibitors; second compound 0.0316 µM; first compound 0.316 µM; stronger effect = lower value

Going from `COc1cccc2c1C(=O)c1c(O)c3c(c(O)c1C2=O)CC(O)(C(=O)CO)CC3OC1CC(N)C(O)C(C)O1` (stereo unspecified) + Nc1ccc(C#CCN(C(=O)Cc2ncc(C(F)(F)F)cc2C(F)(F)F)c2ccc(F)cc2)nn1 to `COc1cc(C2c3cc4c(cc3C(OC3OC5COC(C)OC5C(O)C3O)C3COC(=O)C23)OCO4)cc(OC)c1O` (stereo unspecified) + Cc1cccc(N(C)C(=O)C2C(O)CCN2c2nc(C)cc(C(F)(F)F)c2C#N)c1, the viability, T/C rises from 89.1% to 95.5%.

Compound `CC1COCCN1c1cc(C2(S(C)(=N)=O)CC2)nc(-c2ccnc3[nH]ccc23)n1` (stereo unspecified) + COC1C(OC(N)=O)C(O)C(Oc2ccc3c(O)c(NC(=O)c4ccc(O)c(CC=C(C)C)c4)c(=O)oc3c2C)OC1(C)C has a viability, T/C of 84.4%.

Same assay, conditions: 997537-175-T-J1-PDC complex spheroid viability, combination with POLQ inhibitors; second compound 0.0316 µM; first compound 1 µM; stronger effect = lower value

Compared with `COc1cccc2c1C(=O)c1c(O)c3c(c(O)c1C2=O)CC(O)(C(=O)CO)CC3OC1CC(N)C(O)C(C)O1` (stereo unspecified) + Nc1ccc(C#CCN(C(=O)Cc2ncc(C(F)(F)F)cc2C(F)(F)F)c2ccc(F)cc2)nn1, `COc1cc(C2c3cc4c(cc3C(OC3OC5COC(C)OC5C(O)C3O)C3COC(=O)C23)OCO4)cc(OC)c1O` (stereo unspecified) + Cc1cccc(N(C)C(=O)C2C(O)CCN2c2nc(C)cc(C(F)(F)F)c2C#N)c1 is higher in viability, T/C: 93.5% for the first, 97.7% for the second.

Compound `CC1COCCN1c1cc(C2(S(C)(=N)=O)CC2)nc(-c2ccnc3[nH]ccc23)n1` (stereo unspecified) + COC1C(OC(N)=O)C(O)C(Oc2ccc3c(O)c(NC(=O)c4ccc(O)c(CC=C(C)C)c4)c(=O)oc3c2C)OC1(C)C has a viability, T/C of 85.4%.

Same assay, conditions: 997537-175-T-J1-PDC complex spheroid viability, combination with POLQ inhibitors; second compound 0.0316 µM; first compound 3.16 µM; stronger effect = lower value

For `COc1cccc2c1C(=O)c1c(O)c3c(c(O)c1C2=O)CC(O)(C(=O)CO)CC3OC1CC(N)C(O)C(C)O1` (stereo unspecified) + Nc1ccc(C#CCN(C(=O)Cc2ncc(C(F)(F)F)cc2C(F)(F)F)c2ccc(F)cc2)nn1, the viability, T/C was 50.4%.
